# Data from paper PMC8391236, “Effect of Pterostilbene, a Natural Derivative of Resveratrol, in the Treatment of Colorectal Cancer through Top1/Tdp1-Mediated DNA Repair Pathway” (Cancers, 2021).
# How the values were obtained:
# Type in all cases: cell-based, Human
# Top1 mRNA = assay: qPCR of Top1 mRNA in cells; conditions: 6 h
# Description: (§1) CL187 cells were treated with different concentrations of RE and PTE for 6, 12, 24 h, collected, and added with TRIzol (Thermo Fisher Scientific, Waltham, MA, USA). RNA was precipitated by isopropyl alcohol and washed with 75% ethanol prepared from diethylpyrocarbonate (DEPC) water. The obtained total RNA was dissolved in DEPC water and reverse transcribed into cDNA by a Hifair Ⅲ 1st strand cDNA Synthesis SuperMix for qPCR Kit (Yeasen Biotech, Shanghai, China). The resultant cDNA was used as a template, and the primer sequences were (5′→3′): Top1: F: […], R: […]; Tdp1: F: ACCAGAGTTCAGGAAGAAG, R: TCATAGAGCAGCAGCATC. GAPDH: F: […], R: TCTTCCTCTTGTGCTCTTG. Transcription levels of Top1, Tdp1, and GAPDH genes were determined by qPCR. The qPCR was performed as follows: 95 °C for 10 min, 40 cycles of 95 °C for 10 s, and 60 °C for 30 s. The cycle threshold (Ct) value was determined, and the RQ value was calculated.
# Tdp1-over CL187 cells = assay: Cell viability of Tdp1-overexpressing cells
# Description: CL187 cells were cultured on 6-cm dishes at 37 °C for 24 h. The plasmid (2.5 μg) was diluted with 125 μL serum-free medium Opti-MEM, mixed gently, and incubated at room temperature for 5 min. Lipo 3000 (Invitrogen, Waltham, MA, USA) were diluted with 125 μL serum-free medium Opti-MEM, mixed and incubated for 5 min. Mixed the plasmid and Lipo 3000, incubated at room temperature for 20 min, the mixture was added to CL187 cells, the Tdp1 overexpressed plasmid were transfected into CL187 cells.
# PTE or RE were dissolved in DMSO and diluted with culture medium to 1–100 μM. The final concentration of DMSO was less than 0.1%, and 0.1% DMSO as negative control. CPT, as Top1 inhibitor, was diluted to 0.5 μM [36, 37], and FM, as Tdp1 inhibitor was diluted to 25 μM [38]. Exponentially growing cells were seeded in 96-well plates (5 × 10^3 cells/well) for 12 h. […] Cell viability was determined by CCK-8 (Beyotime Biotechnology, Shanghai, China) assay. Cell viability and inhibition rate were calculated with the following formulae:Cell viability (%) = [OD450 (sample)/OD450 (control)] × 100(1) Inhibition rate (%) = […] − cell viability (%)(2)
# The drug concentration required for inhibiting cell proliferation by 50% (IC50) was determined by interpolation from dose-response curves.
# Tdp1 mRNA = assay: qPCR of Tdp1 mRNA in cells; conditions: 6 h
# Description: as §1
structure (smiles),measurement,setting,value
"COc1cc(/C=C/c2ccc(O)cc2)cc(OC)c1 [PTE, 3,5-dimethoxy-4′-hydroxy-trans-stilbene]",Top1 mRNA expression,Top1 mRNA; Tdp1-over CL187 cells,"suppressed, but there was no significant difference"
same,Top1 mRNA expression,Top1 mRNA; siRNA-Tdp1 CL187 cells,significantly down-regulated
same,Top1 mRNA expression,Top1 mRNA; wild-type CL187 cells,significantly inhibited
same,IC50,"Tdp1-over CL187 cells; Homo sapiens, 24 h, Tdp1-over CL187, 24 h",63 ± 13.6 µM
same,IC50,"Tdp1-over CL187 cells; Homo sapiens, 36 h, Tdp1-over CL187, 36 h",41.1 ± 7.22 µM
same,IC50,"Tdp1-over CL187 cells; Homo sapiens, 48 h, Tdp1-over CL187, 48 h",20.3 ± 3.13 µM
same,IC50,"Tdp1-over CL187 cells; Homo sapiens, 72 h, Tdp1-over CL187, 72 h",19.1 ± 4.08 µM
same,IC50,"Tdp1-over CL187 cells; Tdp1-over CL187, 72 h",~20 µM
same,Tdp1 mRNA expression,Tdp1 mRNA; Tdp1-over CL187 cells,did not change significantly
same,Tdp1 mRNA expression,Tdp1 mRNA; siRNA-Top1 CL187 cells,inhibited without obvious trend
same,Tdp1 mRNA expression,Tdp1 mRNA; wild-type CL187 cells,significantly inhibited
